Measured values from publication PMC12564639, “Discovery of a Novel Anticoagulant Cystine Knot Peptide from Spider Venom Gland Transcriptome” (International Journal of Molecular Sciences, 2025).
Peptide text beside a SMILES is read from it.

Experiments:
[1] = tested on: stasis-induced deep vein thrombosis in mice; assay: Stasis-induced deep vein thrombosis (DVT) model; type: in vivo, C57BL/6J mice
Description: (§1) The C57BL/6J mice (male, 6–8 weeks old) were purchased from Beijing Vital River Laboratory Animal Technology Co., Ltd. (Beijing, China). All animal studies were performed under the approval of the Ethics Committee of the Laboratory Animal Welfare of the Kunming Institute of Zoology, Chinese Academy of Sciences (IACUC-RE-2025-03-010).
Male C57BL/6J mice (6–8 weeks old, n = 10 per group) were randomized to receive intravenous injections of PBS (vehicle control), GC38 (2 or 4 mg/kg), or heparin sodium (1000 U/kg) for the establishment of stasis-induced DVT models. […] Briefly, mice were anesthetized, and the IVC was exposed through a midline abdominal incision. […] Finally, the abdominal wall was closed carefully. At 24 h post-ligation, the IVC was resected, and thrombus formation was quantified by measuring the weight of the thrombi (n = 5). HE staining analysis of thrombus sections was performed to evaluate the extent of thrombosis (n = 5).

[2] = tested on: FeCl3-induced carotid artery thrombosis in mice; assay: FeCl3-induced carotid artery thrombosis model; type: in vivo, C57BL/6J mice; settings: for blood flow reduction, carotid artery: 10 min before FeCl3, n = 6
Description: as §1
Male C57BL/6J mice (6–8 weeks old, n = 6 per group) were randomly assigned to groups receiving intravenous injections of PBS (vehicle control), GC38 (2 or 4 mg/kg in PBS), and heparin sodium (1000 U/kg), respectively. Ten minutes post-injection, mice were anesthetized with 2% isoflurane inhalation. The right carotid artery was surgically exposed, and endothelial injury was induced by applying a 1 × 2 mm filter paper saturated with 10% (w/v) FeCl3 solution for 30 s. Real-time blood flow was monitored using a real-time laser speckle perfusion (LSP) imaging system (RWD Life Science, Shenzhen, China) with SIM BFI software (SIM BFI HR Pro, Simopto, Beijing, China). Thrombosis progression and vessel occlusion were evaluated using real-time ultrasound imaging of the region of interest at baseline (before injury), 5, and 10 min (post-injury). The perfusion unit was recorded to quantify the blood flow. Vessel occlusion was defined as a sustained reduction in perfusion units to ≤10% of baseline for at least 3 min. Data are presented as mean ± SEM.

[3] = target: T1, Human Activated Protein C (APC-1.0) (Homo sapiens, UniProt P04070); assay: APC activity by chromogenic substrate assay; type: biochemical; settings: APC 0.7145 μM, S-2366 402.1 μM, PBS, 37 °C, pre-incubation 10 min, n = 3
T1 construct: purchased Enzyme Research Laboratories, Inc., South Bend, IN, USA APC-1.0
T1 sequence (P04070 212-461 limits assumed): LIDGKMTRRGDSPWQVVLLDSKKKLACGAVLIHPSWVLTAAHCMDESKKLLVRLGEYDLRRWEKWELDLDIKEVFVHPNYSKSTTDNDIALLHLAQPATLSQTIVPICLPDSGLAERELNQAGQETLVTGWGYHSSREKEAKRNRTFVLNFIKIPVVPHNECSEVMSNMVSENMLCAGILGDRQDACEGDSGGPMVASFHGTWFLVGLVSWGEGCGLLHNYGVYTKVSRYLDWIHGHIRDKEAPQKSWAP
T1 sequence (P04070 43-197 limits assumed): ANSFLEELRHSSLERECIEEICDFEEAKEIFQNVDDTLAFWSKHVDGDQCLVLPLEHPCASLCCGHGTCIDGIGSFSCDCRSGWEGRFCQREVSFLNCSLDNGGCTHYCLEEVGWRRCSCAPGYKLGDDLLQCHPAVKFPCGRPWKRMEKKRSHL
Text: Human Activated Protein C (APC-1.0) was purchased from Enzyme Research Laboratories, Inc., South Bend, IN, USA. […] Activated Partial Thromboplastin Time (APTT) Test Kit (TC0306) was bought from Senkey Biotechnology Co., Ltd., Kunming, China. Prothrombin Time (PT) Test Kit (GMS10176) was purchased from GENMED Scientifics Inc., Shanghai, China. Streptavidin (SA) Biosensors (18-5019) were obtained from Sartorius AG, Göttingen, Lower Saxony, Germany. PBS (21-040-CVC) was bought from Corning Incorporated, Corning, NY, USA. Tween-20 (BS361B) was purchased from Biosharp Life Sciences, Hefei, Anhui, China. Trifluoroacetic acid (TFA, T818778-500ml, CAS: 76-05-1) and CaCl2 (C805225) were obtained from Macklin Biochemical Co., Ltd., Shanghai, China. L-oxidized glutathione (GSSG, V900363), Rose Bengal Dye (content 95%, CAS: 632-69-9, 330000-5G), and HEPES (V900477-500G) were purchased from Sigma-Aldrich LLC, St. Louis, MO, USA (Shanghai branch: Sigma-Aldrich Shanghai Trading Co., Ltd., Shanghai, China). […]
APC (0.7145 μM) was pre-incubated with varying concentrations of GC38 (0.1, 1 and 10 μM) in PBS at 37 °C for 10 min. […] Kinetic measurements were performed at 37 °C using a Multi-Mode Microplate Reader (BioTek Synergy™ H1, Winooski, VT, USA) with absorbance at 405 nm recorded every 10 s for 30 min. […]

## CSCC[C@@H]1NC(=O)[C@H](CC(N)=O)NC(=O)CNC(=O)CNC(=O)[C@H](Cc2c[nH]cn2)NC(=O)[C@H](CCCNC(=N)N)NC(=O)CNC(=O)[C@@H]2CSSC[C@@H]3NC(=O)[C@H](CCCNC(=N)N)NC(=O)[C@H](C)NC(=O)CNC(=O)[C@H](CCCCN)NC(=O)CNC(=O)[C@H](CO)NC(=O)[C@@H](NC(=O)CN)CSSC[C@H](NC(=O)[C@H](CSSC[C@@H](C(=O)N[C@@H](CCC(=O)O)C(=O)N[C@@H](Cc4c[nH]c5ccccc45)C(=O)N[C@@H](CC(N)=O)C(=O)N[C@@H](Cc4c[nH]c5ccccc45)C(=O)N[C@@H](CCCCN)C(=O)N[C@H](C(=O)NCC(=O)O)[C@@H](C)O)NC(=O)[C@H](CO)NC(=O)[C@H](CCCCN)NC(=O)[C@H](Cc4ccc(O)cc4)NC1=O)NC(=O)[C@H](CCCCN)NC(=O)[C@H](CO)NC(=O)[C@@H]1CCCN1C(=O)[C@H](C)NC3=O)C(=O)N[C@@H](CO)C(=O)NCC(=O)N[C@@H](CC(C)C)C(=O)N[C@@H](CO)C(=O)N2 [GC38] (HELM PEPTIDE1{G.C.S.G.K.G.A.R.C.A.P.S.K.C.C.S.G.L.S.C.G.R.H.G.G.N.M.Y.K.S.C.E.W.N.W.K.T.G}$PEPTIDE1,PEPTIDE1,2:R3-15:R3|PEPTIDE1,PEPTIDE1,9:R3-20:R3|PEPTIDE1,PEPTIDE1,14:R3-31:R3$$$V2.0)
[1]; GC38 4 mg/kg i.v., 24 h after IVC ligation, n = 5 per group
  reduction of thrombus wet weight versus vehicle control: 64.0%
[1]; HE staining, IVC sections, 24 h after ligation, n = 5
  thrombus area (histology): decrease in thrombus area
[2]; 2 and 4 mg/kg i.v., Doppler flowmetry / laser speckle perfusion
  FeCl3-induced vascular occlusion: alleviated FeCl3-induced vascular occlusion in mice
[2]; GC38 2 mg/kg i.v., 5 min after 10% FeCl3
  blood flow reduction, carotid artery: 20.6%
[2]; GC38 2 mg/kg i.v., 10 min after 10% FeCl3
  blood flow reduction, carotid artery: 44.0%
[2]; GC38 4 mg/kg i.v., 5 min after 10% FeCl3
  blood flow reduction, carotid artery: 11.8%
[2]; GC38 4 mg/kg i.v., 10 min after 10% FeCl3
  blood flow reduction, carotid artery: 29.4%
[3]; GC38 10 μM, 405 nm, versus PBS control, mean
  activity of APC at maximum catalytic velocity (Vmax): 171%
[3]; GC38 0.1-10 μM, absorbance 405 nm every 10 s for 30 min
  APC activity, concentration dependence: enhanced APC activity in a concentration-dependent manner
